Results published in patent publication US20190142810A1, “MITOCHONDRIAL INHIBITORS FOR THE TREATMENT OF PROLIFERATION DISORDERS” (Basilea Pharmaceutica International AG, priority 2016, published 2019).

Experiments:
[1] = test system: Oxygen consumption (mitochondrial function); assay: Oxygen consumption assay (MitoXpress probe); assay type: cell-based; conditions: 5 h, MitoXpress probe signal, kinetic analysis at 37° C. for 5 hours, compared to untreated cells
Text: Oxygen consumption is one of the most informative and direct measures of mitochondrial function and can be measured, for example, by using the MitoXpress® assay (Luxcel MX-2001, Luxcel Biosciences). The MitoXpress® probe is one of a family of phosphorescent oxygen sensitive probes. The assay exploits the ability of oxygen to quench the excited state of the MitoXpress® probe. As the test material respires (i.e. the cells), oxygen is depleted in the surrounding solution/environment, which increases the probe phosphorescence signal. Changes in oxygen consumption reflecting changes in mitochondrial activity are seen as changes in the MitoXpress® probe signal over time.
Cells were seeded in 96 well black plates with transparent bottoms (Greiner Bio-One cat. no. 655090) at a density of 50′000 cells/well in a final volume of 100 μL. After 24 hours the incubation media was removed and 150 μL of fresh media containing inhibitors at different concentrations was added to each well. Then, 10 μL of MitoXpress® and 150 μL mineral oil were added per well. Reading from the top of the plate, kinetic analysis was performed at 37° C. for 5 hours using a Synergy 4 plate reader (BioTek) and Time-resolved Fluoresence (TRF) wavelengths of 380/11 nm excitation and 650/20 nm emission or 665/40 emission (30 microsecond delay time, 100 microsecond integration time, gain or sensitivity settings set at either medium or high). IC50s were calculated as the concentration that inhibits 50% of the phosphorescent oxygen sensitive probe signal (MitoXpress®) as compared to untreated cells.

[2] = test system: HeLa galactose cells; assay: Cell growth and proliferation assay of HeLa galactose cells (crystal violet); assay type: cell-based; conditions: Homo sapiens, HeLa, 72 h, 72 hours incubation, crystal violet staining, absorbance at 590 nm
Outline: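 HeLa cells adapted stepwise over three weeks to glucose-free galactose medium plus 10 mM galactose, seeded at 2000 cells/well and treated 72 h with compounds (0.001% DMSO) at 37° C. Growth read by crystal violet staining, dye solubilized and absorbance at 590 nm; IC50 from concentration-response curves.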

SMILES | IC50 [2] | IC50 [1]
Cc1nsc(NC(=O)N2CC/C(=C/c3ccc(Cl)cc3F)CC2C(C)C)n1 (stereo not shown) [Example 87] | 262 nM | 335 nM
Cc1nsc(NC(=O)N2CCC(=Cc3ccc(CO)cc3F)CC2)n1 [Example 89, 4-[[2-fluoro-4-(hydroxymethyl)phenyl]methylene]-N-(3-methyl-1,2,4-thiadiazol-5-yl)piperidine-1-carboxamide] | 228 nM | 352 nM
Cc1nsc(NC(=O)N2CCC(C(=O)c3ccc(Cl)cc3F)CC2)n1 [Example 92, 4-(4-chloro-2-fluoro-benzoyl)-N-(3-methyl-1,2,4-thiadiazol-5-yl)piperidine-1-carboxamide] | 57 nM | 62 nM
Cc1nsc(NC(=O)N2CCC(=Cc3c(F)cc(C#N)cc3F)CC2)n1 [Example 95, 4-[(4-cyano-2,6-difluoro-phenyl)methylene]-N-(3-methyl-1,2,4-thiadiazol-5-yl)piperidine-1-carboxamide] | 20 nM | 30 nM
COc1cc(F)c(C=C2CCN(C(=O)Nc3nc(C)ns3)CC2)c(F)c1 [Example 97, 4-[(2,6-difluoro-4-methoxy-phenyl)methylene]-N-(3-methyl-1,2,4-thiadiazol-5-yl)piperidine-1-carboxamide] | 28 nM | 30 nM
COc1cc(F)c(CC2CCN(C(=O)Nc3nc(C)ns3)CC2)c(F)c1 [Example 98, 4-[(2,6-difluoro-4-methoxy-phenyl)methyl]-N-(3-methyl-1,2,4-thiadiazol-5-yl)piperidine-1-carboxamide] | 39 nM | 76 nM
Cc1nsc(NC(=O)N2CCC(Cc3c(F)cc(O)cc3F)CC2)n1 [Example 100] | 200 nM | 402 nM
COc1ccc(C=C2CCCN(C(=O)Nc3nc(C)ns3)CC2)c(F)c1 [Example 103] | 71 nM | 156 nM
Cc1nsc(NC(=O)N2CCC(=Cc3c(F)cc(N(C)C)cc3F)CC2)n1 [Example 112, 4-[[4-(dimethylamino)-2,6-difluoro-phenyl]methylene]-N-(3-methyl-1,2,4-thiadiazol-5-yl)piperidine-1-carboxamide] | 12 nM | 23 nM
Cc1nsc(NC(=O)N2CCC(Cc3c(F)cc(N(C)C)cc3F)CC2)n1 [Example 113, 4-[[4-(dimethylamino)-2,6-difluoro-phenyl]methyl]-N-(3-methyl-1,2,4-thiadiazol-5-yl)piperidine-1-carboxamide] | 35 nM | 52 nM
Cc1nsc(NC(=O)N2CCCC(=Cc3ccc(C#N)cc3F)CC2)n1 [Example 117] | 77 nM | 145 nM
Cc1nsc(NC(=O)N2CCCC(Cc3c(F)cc(N(C)C)cc3F)CC2)n1 (stereo not shown) [Example 121, 4-[[4-(dimethylamino)-2,6-difluoro-phenyl]methyl]-N-(3-methyl-1,2,4-thiadiazol-5-yl)azepane-1-carboxamide] | 20 nM | 54 nM
Cc1nsc(NC(=O)N2CCC(Cc3c(F)cc(C#N)cc3F)CC2)n1 [Example 129, 4-[(4-cyano-2,6-difluoro-phenyl)methyl]-N-(3-methyl-1,2,4-thiadiazol-5-yl)piperidine-1-carboxamide] | 16 nM | 20 nM
Cc1cc(NC(=O)N2CCC(=Cc3c(F)cc(Cl)cc3F)CC2)ccn1 [Example 137, 4-[(4-chloro-2,6-difluoro-phenyl)methylene]-N-(2-methyl-4-pyridyl)piperidine-1-carboxamide] | 17 nM | 42 nM
Cc1cc(NC(=O)N2CCC(=Cc3c(F)cc(C(F)(F)F)cc3F)CC2)ccn1 [Example 138, 4-[[2,6-difluoro-4-(trifluoromethyl)phenyl]methylene]-N-(2-methyl-4-pyridyl)piperidine-1-carboxamide] | 21 nM | 147 nM
COc1ccc(C(=O)C2CCN(C(=O)Nc3nc(C)ns3)CC2)c(F)c1 [Example 140, 4-(2-fluoro-4-methoxy-benzoyl)-N-(3-methyl-1,2,4-thiadiazol-5-yl)piperidine-1-carboxamide] | 43 nM | 94 nM
Cc1cc(NC(=O)N2CCC(C(=O)c3ccc(C(F)(F)F)cc3F)CC2)ccn1 [Example 143] | 43 nM | 103 nM
CCc1cc(NC(=O)N2CCC(=Cc3ccc(Cl)cc3F)CC2)ccn1 [Example 144, 4-[(4-chloro-2-fluoro-phenyl)methylene]-N-(2-ethyl-4-pyridyl)piperidine-1-carboxamide] | 8 nM | 53 nM
Cc1cc(NC(=O)N2CCC(Cc3c(F)cc(Cl)cc3F)CC2)ccn1 [Example 145] | 15 nM | 106 nM

Further molecules by falling IC50 [2], results first:

IC50 [2] | SMILES | IC50 [1]
251 nM | Cc1nsc(NC(=O)N2CCC(=Cc3ccc(NCCN)cc3F)CC2)n1 [Example 101, 4-[[4-(2-aminoethylamino)-2-fluoro-phenyl]methylene]-N-(3-methyl-1,2,4-thiadiazol-5-yl)piperidine-1-carboxamide] | 412 nM
208 nM | O=C(Nc1nc(CCO)ns1)N1CCC(Cc2ccc(Cl)cc2F)CC1 [Example 96] | 361 nM
189 nM | Cc1nsc(NC(=O)N2CCC(=Cc3ccc(NCCCN)cc3F)CC2)n1 [Example 102] | 395 nM
97 nM | O=C(Nc1ccncc1)N1CCC(=Cc2ccc(Cl)cc2F)CC1 [Example 94] | 159 nM
96 nM | Nc1nsc(NC(=O)N2CCC(Cc3ccc(Cl)cc3F)CC2)n1 [Example 108, N-(3-amino-1,2,4-thiadiazol-5-yl)-4-[(4-chloro-2-fluoro-phenyl)methyl]piperidine-1-carboxamide] | 132 nM
66 nM | Cc1nsc(NC(=O)N2CCC(=Cc3ccc(N(C)CCO)cc3F)CC2)n1 [Example 110] | 151 nM
56 nM | COCc1ccc(C=C2CCN(C(=O)Nc3nc(C)ns3)CC2)c(F)c1 [Example 93, 4-[[2-fluoro-4-(methoxymethyl)phenyl]methylene]-N-(3-methyl-1,2,4-thiadiazol-5-yl)piperidine-1-carboxamide] | 63 nM
55 nM | CNc1ccc(C=C2CCN(C(=O)Nc3nc(C)ns3)CC2)c(F)c1 [Example 109] | 103 nM
54 nM | Cc1nsc(NC(=O)N2CCCC(=Cc3ccc(C(F)(F)F)cc3F)CC2)n1 [Example 116] | 150 nM
43 nM | Cc1nsc(NC(=O)N2CCC/C(=C/c3ccc(Cl)cc3F)CC2)n1 [Example 118, (4Z)-4-[(4-chloro-2-fluoro-phenyl)methylene]-N-(3-methyl-1,2,4-thiadiazol-5-yl)azepane-1-carboxamide] | 70 nM
33 nM | Cc1cc(NC(=O)N2CCC(=Cc3ccc(Cl)cc3F)CC2)ccn1 [Example 128] | 168 nM
32 nM | Cc1nsc(NC(=O)N2CCCC(Cc3ccc(C(F)(F)F)cc3F)CC2)n1 (stereo not shown) [Example 120, 4-[[2-fluoro-4-(trifluoromethyl)phenyl]methyl]-N-(3-methyl-1,2,4-thiadiazol-5-yl)azepane-1-carboxamide] | 54 nM
29 nM | Cc1nsc(NC(=O)N2CCC/C(=C/c3c(F)cc(N(C)C)cc3F)CC2)n1 [Example 115, (4Z)-4-[[4-(dimethylamino)-2,6-difluoro-phenyl]methylene]-N-(3-methyl-1,2,4-thiadiazol-5-yl)azepane-1-carboxamide] | 79 nM
29 nM | Cc1nsc(NC(=O)N2CCC(C(=O)c3ccc(Br)cc3F)CC2)n1 [Example 141, 4-(4-bromo-2-fluoro-benzoyl)-N-(3-methyl-1,2,4-thiadiazol-5-yl)-piperidine-1-carboxamide] | 56 nM
22 nM | Cc1cc(NC(=O)N2CCC(Cc3c(F)cc(C(F)(F)F)cc3F)CC2)ccn1 [Example 139] | 152 nM
21 nM | Cc1nsc(NC(=O)N2CC/C(=C\c3ccc(Cl)cc3F)CC2C)n1 (stereo not shown) [Example 86, (4E)-4-[(4-chloro-2-fluoro-phenyl)methylene]-2-methyl-N-(3-methyl-1,2,4-thiadiazol-5-yl)piperidine-1-carboxamide] | 61 nM
19 nM | Cc1nsc(NC(=O)N2CCCC(=Cc3c(F)cc(Cl)cc3F)CC2)n1 [Example 114] | 65 nM
15 nM | Cc1nsc(NC(=O)N2CCCC(Cc3c(F)cc(Cl)cc3F)CC2)n1 (stereo not shown) [Example 127, 4-[(4-chloro-2,6-difluoro-phenyl)methyl]-N-(3-methyl-1,2,4-thiadiazol-5-yl)azepane-1-carboxamide] | 35 nM
13 nM | COCCN(C)c1cc(F)c(C=C2CCN(C(=O)Nc3nc(C)ns3)CC2)c(F)c1 [Example 146, 4-[[2,6-difluoro-4-[2-methoxyethyl(methyl)amino]phenyl]methylene]-N-(3-methyl-1,2,4-thiadiazol-5-yl)piperidine-1-carboxamide] | 20 nM
